Test results as given in patent publication EP0449955B1, “SYNTHETIC HIV-LIKE PEPTIDES, THEIR COMPOSITIONS AND USES” (CLARITY TECHNOLOGIES INCORPORATED, priority 1988, dated 1996).
Entries after “also recorded” stand apart in the source; their conditions may differ.

Columns and labels:
antibody to HIV-1 = assay: EIA of p24 synthetic peptide-BSA conjugates with serum pools and individual sera; format: binding, human
Procedure: (§1) The free peptides or peptide-protein conjugates of Figures 1-13 were initially screened for immunoreactivity by coating each well of polystyrene microtiter EIA plates (Costar, Cambridge, Massachusetts, U.S.A.) with 0.2 ml amounts of concentrations of 5-50 micrograms/ml peptide in Tris buffer, 10 mM, pH 8.0, at 4°C overnight. Peptides or peptide-protein conjugates showing immunoreactivity by EIA were then further diluted for coating to determine the minimal concentrations required that allowed maximal immunoreactivity with antibodies to HIV, and minimal nonspecific reactivity with normal sera. The EIA tests were performed as follows: The coating solution was removed from each well and the wells were blocked at 37°C for 30 minutes with a solution of 50 mM phosphate, 100 mM NaCl, pH 7.4, 1% BSA, 0.5% gelatin. The wells were then aspirated dry with a microtiter plate washer and washed 3 times with a solution of 50 mM phosphate, 100 mM NaCl, .05% Tween 20, (trademark) pH 7.4 (PBST). A 1:101 dilution (in PBST with 1% BSA, 1% NRS) of the primate serum to be tested was then added as 0.2 ml to each washed well and the plates were incubated at 37°C for 30 minutes. The plates were then washed x 3 with PBST, and 0.2 ml amounts of a 1:2000 dilution of goat anti-human (GAH) peroxidase enzyme conjugate (Organon Teknika, Cappel, Melvern, Pennsylvania, U.S.A.) that recognized human IgG, IgA, and IgM were added to each well, and the plates were incubated for 30 minutes at 37°C. The plates were then washed x 3 with PBST and incubated with 0.2 ml/well substrate consisting of 0,1M citric acid pH 5.2, 0.1 mg/ml o-phenylene diamine, 0.01% H₂O₂, at room temperature in the dark for 10 minutes. Reactions were stopped with 50 microliters of 4N H₂SO₄, and the color development was quantitated in a Multiscan plate reader at A₄₉₂. In each series of experiments positive and negative controls were included, and all tests were done in duplicate or quadruplicate. Most peptides and peptide conjugates were initially screened against a 1:101 dilution of pools of HIV positive or HIV negative sera, and the same serum pool was used to allow quantitative comparison of immunoreactivity of different free peptides or peptide-protein conjugates.
Figure 8 illustrates the immunoreactivity and AA sequences of synthetic peptides of the p24 protein of HIV-1, when conjugated to BSA via their C-termini using SMCC, and reacted with a pool of approximately 50 sera from persons containing antibody to HIV-1, or with a pool of approximately 30 sera from individuals devoid of antibody to HIV-1. […] No negative sera (0/85, 0%) reacted, and 17 positive sera (17/98, 17%) were immunoreactive. It has been reported that individuals lose antibodies to p24 during the course of progression from asymptomatic infection to clinical disease and AIDS (Franchini et al., Blood 69:(2):437-441, 1987, and Weber et al., Lancet i:119-122, 1987), which may explain the lower frequency of antibodies to this peptide in the sera tested.

antibodies to HIV-1 [1] = assay: EIA of HIV-1 gp41 peptide-protein conjugates against serum pools; format: binding, human; conditions: peptide conjugated via C-terminus to BSA (SMCC), coated at 10 micrograms peptide/ml; 1:101 dilution of HIV+ serum pool; Figure 1
Procedure: as §1
The peptides in Figures 1 and 5 were synthesized as described in Example 1 and conjugated to KLH or BSA as described in Example 2. These peptide-protein conjugates were coated to polystyrene microtiter plates all at a concentration 10 micrograms peptide/ml and evaluated for immunoreactivity as described in Example 3, using a 1:101 dilution of a pool of sera (HIV+/SIV+, respectively) containing antibodies to HIV-1 (Figure 1) or to HIV-2 (Figure 5), as well as pooled serum (HIV-/SIV-, respectively) containing no antibodies to HIV-1 or HIV-2. […] Since sera from patients infected with HIV-2 are relatively unavailable in the United States, the immunoreactivity of HIV-2 synthetic peptides was assessed using serum from macaques infected with SIV, obtained from the University of Washington Primate Center, Seattle, Washington, U.S.A. The AA sequence of SIV is nearly identical to HIV-2 in the region of the peptides synthesized (see Myers et al., Human Retroviruses and AIDS, 1988. A compilation of nucleic acid and amino acid sequences. Los Alamos National Laboratory, Los Alamos, New Mexico, 87545, USA).

SIV/HIV-2 antibodies = assay: EIA of HIV-2 gp32 peptide-protein conjugates against macaque serum pools; format: binding; conditions: peptide conjugated via C-terminus to BSA (SMCC), coated at 10 micrograms peptide/ml; 1:101 dilution of SIV+ macaque serum pool; Figure 5
Procedure: The free peptides or peptide-protein conjugates of Figures 1-13 were initially screened for immunoreactivity by coating each well of polystyrene microtiter EIA plates (Costar, Cambridge, Massachusetts, U.S.A.) with 0.2 ml amounts of concentrations of 5-50 micrograms/ml peptide in Tris buffer, 10 mM, pH 8.0, at 4°C overnight. Peptides or peptide-protein conjugates showing immunoreactivity by EIA were then further diluted for coating to determine the minimal concentrations required that allowed maximal immunoreactivity with antibodies to HIV, and minimal nonspecific reactivity with normal sera. The EIA tests were performed as follows: The coating solution was removed from each well and the wells were blocked at 37°C for 30 minutes with a solution of 50 mM phosphate, 100 mM NaCl, pH 7.4, 1% BSA, 0.5% gelatin. The wells were then aspirated dry with a microtiter plate washer and washed 3 times with a solution of 50 mM phosphate, 100 mM NaCl, .05% Tween 20, (trademark) pH 7.4 (PBST). […] Reactions were stopped with 50 microliters of 4N H₂SO₄, and the color development was quantitated in a Multiscan plate reader at A₄₉₂. […] Most peptides and peptide conjugates were initially screened against a 1:101 dilution of pools of HIV positive or HIV negative sera, and the same serum pool was used to allow quantitative comparison of immunoreactivity of different free peptides or peptide-protein conjugates.
The peptides in Figures 1 and 5 were synthesized as described in Example 1 and conjugated to KLH or BSA as described in Example 2. These peptide-protein conjugates were coated to polystyrene microtiter plates all at a concentration 10 micrograms peptide/ml and evaluated for immunoreactivity as described in Example 3, using a 1:101 dilution of a pool of sera (HIV+/SIV+, respectively) containing antibodies to HIV-1 (Figure 1) or to HIV-2 (Figure 5), as well as pooled serum (HIV-/SIV-, respectively) containing no antibodies to HIV-1 or HIV-2. […]

antibodies to HIV-2 = assay: EIA of HIV-2 peptide-BSA conjugates with macaque sera; format: binding; conditions: macaque sera containing or not containing antibodies to HIV-2, Figure 7
Procedure: The synthetic peptides of Figures 1-8 were reduced with 10mM DTT, or with immobilized DTT (Reductacryl, Calbiochem, San Diego, California, U.S.A., 10 mg Reductacryl per mg peptide) overnight at 4°C, pH8 in 10mM borate or other buffers depending upon peptide solubility, with gentle mixing. KLH was dissolved at a concentration of 10-30 mg/ml in 10 mM phosphate buffer pH 7.2., and BSA was dissolved at a concentration of 20-80 mg/ml for treatment with heterobifunctional linkers MBS (m-Maleimidobenzoyl-N-hydroxysuccinimide ester), SPDP [N-Succinimidyl 3-(2 pyridyldithio)propionate], or Sulfo-SMCC [Sulfo-Succinimidyl 4(N-maleimidomethyl)-cyclohexane-1-carboxylate]. The heterobifunctional linkers were added to the protein solutions in a molar excess of linker to BSA of 100, or of linker to KLH of 1000. MBS was dissolved in DMF at 10mg/ml, SPDP was dissolved in absolute ethanol at 10mg/ml and each of these was added dropwise with mixing into the protein solution, whereas the Sulfo-SMCC dry powder was dissolved into the protein solution. Each protein-linker mixture was reacted at room temperature for 15 minutes to 1 hour and then free linker was separated from BSA-linker or KLH-linker by gel chromatography with Sephadex G25 using 50mM phosphate, pH 6 for KLH-MBS, 10mM acetate, 100 mM Nacl, pH 4.6 for BSA-SPDP, or 100 mM phosphate, 1 mM EDTA, pH 6.5 for BSA-SMCC. The reduced peptides were separated from DTT by Sephadex G10 column chromatography when soluble DTT was used, or by centrifugation followed by filtration through a 0.22 micron filter when Reductacryl was used. Reduced peptides were combined with linker treated KLH or BSA in molar ratios of 100-1000 peptide/KLH-MBS, 1-50 peptide/BSA-SMCC, and 0.1-10 peptide/BSA-SPDP. Each reduced peptide was added to the linker-treated protein with mixing, overlayed with N₂, and then mixed gently at room temperature for one hour, and then overnight at 4°C. The SMCC-BSA conjugates were further treated with a 1 mM final concentration of mercaptoethylamine for 4 hours, and then dialyzed overnight against 100 volumes of buffer (20mM phosphate, 1 mM EDTA, 0.05% sodium azide, pH 6.5) at 4°C. All other conjugates were adjusted to a final concentration of sodium azide of 0.05%. Optimal molar ratios of peptide/protein for the conjugates were determined by solubility and antigenicity (as evaluated by EIA).
The free peptides or peptide-protein conjugates of Figures 1-13 were initially screened for immunoreactivity by coating each well of polystyrene microtiter EIA plates (Costar, Cambridge, Massachusetts, U.S.A.) with 0.2 ml amounts of concentrations of 5-50 micrograms/ml peptide in Tris buffer, 10 mM, pH 8.0, at 4°C overnight. […]

antibodies to HIV-1 [2] = assay: EIA of peptide-carrier conjugates with individual human sera; format: binding; conditions: BSA-SMCC conjugate
Procedure: as §1
Figure 10A illustrates the immunoreactivity of synthetic natural peptides 2S06 and 2S09 (Figure 1) when conjugated via their C-terminal GC spacer to KLH using the heterobifunctional linker MBS. […] However, the immunoreactivity of many of the positives was low (A₄₉₂ less than 1.0), and some of the negative samples had A₄₉₂ values slightly above 0.20, resulting in minimal discrimination between negatives and positives. This poor discrimination led to a search for an improved carrier protein and/or linker.
Figure 10B illustrates the reactivity of synthetic natural peptide IWGCSGKLICTTAVPGC (2S09) when conjugated through its C-terminus to BSA via the heterobifunctional linker SMCC. […] Improvement in assay performance as compared with results of Example 5A is noted with respect to negative samples having lower A₄₉₂ values, and most positive samples having higher A₄₉₂ values. […] Because of the possibility that some of the low responsiveness might be due to antigenic differences of genetic variants in the region of this epitope, as reported for HIV isolates from Zaire (Gnann et al., Science 237:1346-1349, 1987), the natural sequence variant peptide 5S67 (Figure 3) was synthesized, chemically linked to BSA with SMCC, and tested against the same sera, plus one additional negative serum sample (Figure 10C). […] This instigated a search for unnatural sequence variants of peptide 2S09 that would retain high immunoreactivity with most sera that contained antibodies to HIV-1, and yet retain low reactivity with sera devoid of antibodies to HIV. […]

[3] = BSA-SMCC conjugate, 85 individual sera without antibodies to HIV-1
[4] = BSA-SMCC conjugate, 98 individual sera with antibodies to HIV-1

Sequence	immunoreactivity with HIV-1 antibodies (antibodies to HIV-1 [1])	other results
ALGPAATLEEMMTACGC [5S94]	–	negative sera that reacted (antibody to HIV-1; [3]): 0/85; negative sera that reacted (percent) (antibody to HIV-1; [3]): 0%; positive sera immunoreactive (antibody to HIV-1; [4]): 17/98; positive sera immunoreactive (percent) (antibody to HIV-1; [4]): 17%; immunoreactivity with serum pools (antibody to HIV-1; BSA-SMCC conjugates, pool of approximately 50 positive sera and pool of approximately 30 negative sera, Figure 8): proved to be the immunoreactive peptide; also recorded: significant immunoreactivity
AVERYLKDQQLLGC [2S01]	significantly less immunoreactive	–
CSGKLICTTAVPWNAGC [3S51]	higher reactivity; also recorded: Significant immunoreactivity	–
DQARLNSWGCAFRQVC [2S24]	–	immunoreactivity with SIV/HIV-2 antibodies (SIV/HIV-2 antibodies): maximally immunoreactive; also recorded: Significant immunoreactivity; also recorded: best immunoreactivity; discrimination of positive from negative samples (antibodies to HIV-2): most favorable performances
ERYLKDQQLLGIIVGC [2S02]	significantly less immunoreactive	–
GCSGKLICTTAVPWNGC [2S11]	higher reactivity; also recorded: Significant immunoreactivity	–
GKLICTTAVPWNASWGC [3S55]	higher reactivity; also recorded: Significant immunoreactivity	–
IKQLQARILAVERYLKDQQ [4S24, reference compound]	lower immunoreactivity	–
IWGCSGKMICTTAVPGC [5S76]	–	immunoreactivity with positive sera (antibodies to HIV-1 [2]; 98 sera containing antibodies to HIV-1, Figures 10B, 10C, 11): strong immunoreactivity with some sera that reacted weakly in Figure 10B; positive samples giving A492 less than 1.0 (antibodies to HIV-1 [2]; of 98 positive sera, Figure 11B): Five
KDQQLLGIWGCSGKLGC [2S04]	Significant immunoreactivity	–
KLICTTAVPWNASWSGC [2S15]	higher reactivity; also recorded: Significant immunoreactivity	–
LGIWGCSGKLICTTAGC [2S07]	Significant immunoreactivity	–
LLGIWGCSGKLICTTGC [2S06]	Significant immunoreactivity	–
QQLLGIWGCSGKLICGC [3S36]	Significant immunoreactivity	–
RILAVERYLKDQQLLGIWGCSGKLIC [4S25, reference compound]	lower immunoreactivity; also recorded: lower or comparable immunoreactivity; also recorded: Significant immunoreactivity	–
SGKLICTTAVPWNASGC [2S13]	higher reactivity; also recorded: Significant immunoreactivity	–
SWGCAFRQVCHTSVPGC [5S86]	–	discrimination of positive from negative samples (antibodies to HIV-2): most favorable performances
SWGCAFRQVCHTTVPGC [2S27]	–	immunoreactivity with SIV/HIV-2 antibodies (SIV/HIV-2 antibodies): maximally immunoreactive; also recorded: Significant immunoreactivity; also recorded: best immunoreactivity; discrimination of positive from negative samples (antibodies to HIV-2): most favorable performances
YLKDQQLLGIWGCSGC [2S03]	significantly less immunoreactive	–
